From US20250064773A1, “TARGETING ERO1 ALPHA WITH AURONE DERIVATIVES” (West Virginia University Board of Governors on behalf of …, priority 2021, published 2025)

Target: T1, ERO1β (Homo sapiens, UniProt Q86YB8)
T1 construct: endogenous in cells; host or cells: PC-9
T1 sequence (Q86YB8 34-467): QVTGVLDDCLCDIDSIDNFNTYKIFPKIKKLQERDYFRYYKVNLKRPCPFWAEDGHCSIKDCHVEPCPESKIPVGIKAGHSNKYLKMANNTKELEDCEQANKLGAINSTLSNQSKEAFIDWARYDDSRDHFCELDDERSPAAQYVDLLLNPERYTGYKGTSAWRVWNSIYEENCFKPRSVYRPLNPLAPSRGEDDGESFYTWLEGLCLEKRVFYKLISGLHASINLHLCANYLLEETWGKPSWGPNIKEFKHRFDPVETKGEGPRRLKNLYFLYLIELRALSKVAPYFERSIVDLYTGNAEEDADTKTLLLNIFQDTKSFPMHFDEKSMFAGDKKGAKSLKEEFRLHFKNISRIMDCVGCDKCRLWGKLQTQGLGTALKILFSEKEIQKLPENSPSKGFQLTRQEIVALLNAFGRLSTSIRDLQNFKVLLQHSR
Experiment: Cellular thermal shift assay (CETSA) in PC-9 cells, ERO1β
Assay type: cell-based
Conditions: 100 μM
Description: To date activity of T151742 towards other flavoenzymes has not been identified at this time. We utilized the Cellular Thermal Shift Assay (CETSA) to determine target engagement of T151742 in vitro using the non-small cell lung cancer (NSCLC) cell line PC-9. The EGFR driven PC-9 cell line was chosen as new treatment strategies are needed in EGFR driven NSCLC as most patients relapse and become resistant to current targeted therapies with development of further mutations such as T790M, C797S as well as emergence of EGFR independent tumors^42, 43. […] First, we determined the aggregation temperature (Tagg) of ERO1α, ERO1β, and LSD-1, which are all FAD dependent enzymes and potential in vitro targets of T15742. […]
Upon addition of T151742, Tagg was quantified for ERO1α, ERO1β, and LSD-1. Quantification of the average of n=3 independent experiments based on western blot analysis for ERO1α, ERO1β, and LSD-1. […] Cellular viability was determined by MTT assay. n=3 independent experiments performed in quadruplicates. ****p<0.0001; by two-way ANOVA.
Cell Lines: PC-9 cell line used was obtained from Sigma Aldrich and grown in RPMI 1640 medium with 10% fetal bovine serum and 1% penicillin/streptomycin. […] Plate was then read on the BioTek Cytation 5 at 530/590 nm. […]

Question: Which “change of Tagg for ERO1β” value does the source give for `CN(C)c1ccc(/C=C2\Oc3cc(O)ccc3C2=O)cc1` [Compound T151742] here?
Answer: did not change
